Data taken from patent US12485117B2, “Compositions and methods for activating signaling through the CB1 cannabinoid receptor for treating and preventing diseases and disorders characterized by abnormal cellular accumulation of sphingolipids such as sphingomyelin” (Wylder Nation Foundation, priority 2018, dated 2025).

Assays:
[1] = tested on: microglia; experiment: Acute toxicity: brain inflammation by iba-1 immunofluorescence (microglia numbers); assay type: in vivo, mouse; details: ASMko mice
Text: FIGS. 29A-29C show representative images of immunofluorescence against ibal, a marker for microglia, which is used as a readout for inflammation. FIGS. 29A-29C show ibal expression in hippocampus (FIG. 29A), cerebellum (FIG. 29B), and cortex (FIG. 29C), respectively, of wt and ASMko mice treated with PF-04457845 at the indicated doses or with vehicle.
(§1) We divided wt and ASMko mice of 4.5 months of age in six experimental groups: ASMko control (n=3), ASMko low dose (n=3), ASMko intermediate dose (n=3), ASMko high dose (n=3), wt control (n=3), wt high dose (n=3). PF-04457845, provided as powder, was dissolved in 0.9% NaCl and administered to mice through oral gavage. Vehicle groups received same volume of 0.9% NaCl.
Inflammation was analyzed in different brain areas (hippocampus, cerebellum and cortex) by immunofluorescence against the microglia marker iba-1. Under inflammatory conditions the number of microglia increases. Confirming high inflammation in the brain of vehicle-treated ASMko mice, microglia numbers increased compared to wt mice in all areas (FIGS. 29A-29C).

[2] = tested on: wt and ASMko mice; experiment: Acute toxicity: SM and ceramide levels in blood; assay type: in vivo, mouse
Procedure: as §1
After these 48 hours and immediately before termination we collected blood from mice and prepared serum by leaving blood samples 30 minutes for clotting at room temperature and by collecting the supernatant after centrifugation at 6000 rpm for 10 minutes. Following termination, mice were transcardially perfused with phosphate-buffered saline (PBS).
SM and ceramide levels were also monitored in the blood of wt and ASMko mice with and without PF-04457845 treatment as a readout of acute toxicity.

[3] = tested on: permeabilized ASMko neurons; experiment: Lysenin staining of SM in intracellular compartments of permeabilized ASMko neurons; assay type: cell-based, mouse; details: 1 hour at 50 μM (FIG. 9)
Procedure: Statistical significance Student's t-test, *P<0.05, n=3 independent cultures.
To determine whether SM hydrolysis induced by FAAH inhibitors was taking place not only at the cell surface, but also in intracellular compartments, we performed staining with lysenin, a worm toxin that specifically binds to SM, in permeabilized ASMko neurons non-treated or treated with anandamide, URB, PF-04457845 or JNJ for 1 hour at 50 μM.

[4] = in vivo; cited from earlier work
[5] = tested on: wt and ASMko mice; experiment: Tail Suspension Test; assay type: in vivo, mouse; details: 0.3 mg/kg every three days
Procedure: FIGS. 13A-13C show the effect of PF-04457845 treatment on various behavioral functions. […] (n=14; **p<0.01, *p<0.05).
(§2) Treatment started at 7 weeks of age and continued for 8 weeks. PF-04457845 was dissolved in 0.9% NaCl and delivered through oral gavage at a dose of 0.3 mg/kg every three days. We chose this dose based on the studies published by Ahn et al., (J Pharm Exp Ther 2011). Control groups received same volume of 0.9% NaCl without PF-04457845.
Mood alterations were monitored by the Tail Suspension Test (FIG. 13B) and by the Elevated Plus Maze test (FIG. 13C) that give an idea of depressive state and anxiety, respectively. […] PF-04457845 treatment had no effect in the behavior of wt mice.

[6] = tested on: wt and ASMko mice; experiment: Sphingomyelin levels by enzymatic assay in tissue extracts after 8-week treatment; assay type: in vivo, mouse; details: 0.3 mg/kg every three days, 8 weeks
Procedure: as §2
Sphingomyelin levels were measured by enzymatic assays in extracts of different brain areas and in liver, spleen, and lung (FIG. 14).

[7] = tested on: Purkinje cells; experiment: Lysosomal size by Lamp1 staining of Purkinje cells; assay type: in vivo, mouse; details: ASMko mice, 0.3 mg/kg every three days
Procedure: FIGS. 15A-15D show representative images of Purkinje cells from wildtype and ASMko mice treated or not treated with PF-04457845.
as §2
Purkinje cell death was analyzed by Calbindin1 staining in the cerebellum of wt and ASMko treated or not with PF-04457845 (FIG. 15A). Loss of Purkinje cells was prominent in non-treated ASMko mice compared to wt. […] PF-04457845 treatment had no effect on Purkinje cell survival in wt mice. We also analyzed Lysosomal size by staining Purkinje cells of the cerebellum for Lamp1 expression in samples from wt and ASMko mice treated or not treated with PF-04457845 (FIG. 15B). Lysosomal size was increased by an average 45% in the non-treated ASMko compared to wt mice consistent with sphingomyelin accumulation in these organelles. This alteration was prevented to a significant extent (35%) in the ASMko mice treated with PF.

[8] = tested on: wt and ASMko mice; experiment: Acute toxicity: sphingomyelin levels by enzymatic assay in brain areas and liver; assay type: in vivo, mouse; details: 48 hours
Procedure: as §1
Doses have been calculated taking into account that used in the study conducted in healthy humans (Li et al., Br J Clin Pharmacol 2011, 73:706-716). […] Estimating an average weight of 60 kg for an adult human the daily dose equals to 0.0083 mg/kg. This dose was very similar to that used in our first 8 week-long treatment with PF-04457845 in ASMko mice, which according to the formulas to calculate equivalence between humans and mice (Nair and Jacob J Basic Clin Pharma 2016, 7:27-31) corresponded to a daily HED dose of 0.0072 mg/kg. For this toxicity study we agreed to take into account the human dose: 0.0083 mg/kg. Formula conversion to mouse dose: HED (mg/kg)=Mouse dose (mg/kg)×mouseKm/Human Km).
Sphingomyelin levels were quantified by enzymatic assay in extracts from different brain areas (hippocampus, cerebellum and cortex) and from liver of wt and ASMko mice treated with PF-04457845 at 0.1 mg/kg, 1 mg/kg and 5 mg/kg or with vehicle (FIG. 26). The results confirmed the remarkable increase of sphingomyelin levels in the vehicle-treated ASMko mice with respect to wt at this advanced stage of the disease (168% in hippocampus, 170% in cerebellum, 139% in cortex and 216% in liver with respect to wt values considered 100%).

[9] = ASMko mice, single dose of 5 mg/kg
[10] = wt mice, single dose of 5 mg/kg

O=C(Nc1cccnn1)N1CCC(=Cc2cccc(Oc3ccc(C(F)(F)F)cn3)c2)CC1 [PF-04457845]
microglia numbers in hippocampus, cerebellum and cortex ([1]; single dose 0.1 mg/kg): did not significantly alter microglia numbers | microglia numbers in hippocampus, cerebellum and cortex ([1]; single dose 1 mg/kg): remarkably reduced microglia numbers to levels similar to wt mice | microglia numbers in hippocampus, cerebellum and cortex ([1]; single dose 5 mg/kg): remarkably reduced microglia numbers to levels similar to wt mice | SM levels in blood ([2]; ASMko mice, single doses 0.1, 1, 5 mg/kg (data not shown)): moderate dose-dependent decrease | ceramide levels in blood ([2]; single dose of 0.1 mg/kg (data not shown)): high variability with a tendency to increase | ceramide levels in blood ([2]; single dose of 1 mg/kg (data not shown)): decreased | ceramide levels in blood ([2]; single dose of 5 mg/kg (data not shown)): decreased | SM levels in intracellular compartments (lysenin staining) [3]: significantly reduced SM levels | brain blood barrier crossing [4]: can cross the brain blood barrier | behavior in Tail Suspension Test (depressive state) ([5]; ASMko mice): normalized | behavior in Tail Suspension Test ([5]; wt mice): no effect | sphingomyelin levels in cerebellum ([6]; ASMko mice): significant reduction of sphingomyelin | sphingomyelin levels in cortex ([6]; ASMko mice): significant reduction of sphingomyelin | sphingomyelin levels in hippocampus ([6]; ASMko mice): significant reduction of sphingomyelin | sphingomyelin levels in liver ([6]; ASMko mice): significant reduction of sphingomyelin | sphingomyelin levels in lung ([6]; ASMko mice): non-statistically significant trend towards a decrease | sphingomyelin levels in spleen ([6]; ASMko mice): significant reduction of sphingomyelin | sphingomyelin levels in tissues ([6]; wt mice): did not alter sphingomyelin levels | increase of lysosomal size prevented (Lamp1) [7]: 35% | sphingomyelin levels in hippocampus [8, 9]: high variability | sphingomyelin levels reduced in cerebellum [8, 9]: 21% | sphingomyelin levels reduced in cortex [8, 9]: 8% | sphingomyelin levels reduced in liver [8, 9]: 6% | reduction of sphingomyelin in brain areas and liver ([8]; single dose of 0.1 mg/kg): No statistically significant reduction | reduction of sphingomyelin in brain areas and liver ([8]; single dose of 1 mg/kg): No statistically significant reduction | sphingomyelin levels reduced in cerebellum [8, 10]: 17% | sphingomyelin levels reduced in cortex [8, 10]: 23% | sphingomyelin levels reduced in hippocampus [8, 10]: 13% | sphingomyelin levels reduced in liver [8, 10]: 34%
